{"source": "patent US20210403420A1", "about": "“BENZOATE COMPOUND” (SCOHIA PHARMA, INC., priority 2018, published 2021)", "key": {"[1]": {"biological_target": "T1, Human recombinant enteropeptidase (Homo sapiens, UniProt P98073)", "T1 construct": "purchased ITSI-Biosciences LLC #REN-260", "T1 sequence (P98073 whole entry)": "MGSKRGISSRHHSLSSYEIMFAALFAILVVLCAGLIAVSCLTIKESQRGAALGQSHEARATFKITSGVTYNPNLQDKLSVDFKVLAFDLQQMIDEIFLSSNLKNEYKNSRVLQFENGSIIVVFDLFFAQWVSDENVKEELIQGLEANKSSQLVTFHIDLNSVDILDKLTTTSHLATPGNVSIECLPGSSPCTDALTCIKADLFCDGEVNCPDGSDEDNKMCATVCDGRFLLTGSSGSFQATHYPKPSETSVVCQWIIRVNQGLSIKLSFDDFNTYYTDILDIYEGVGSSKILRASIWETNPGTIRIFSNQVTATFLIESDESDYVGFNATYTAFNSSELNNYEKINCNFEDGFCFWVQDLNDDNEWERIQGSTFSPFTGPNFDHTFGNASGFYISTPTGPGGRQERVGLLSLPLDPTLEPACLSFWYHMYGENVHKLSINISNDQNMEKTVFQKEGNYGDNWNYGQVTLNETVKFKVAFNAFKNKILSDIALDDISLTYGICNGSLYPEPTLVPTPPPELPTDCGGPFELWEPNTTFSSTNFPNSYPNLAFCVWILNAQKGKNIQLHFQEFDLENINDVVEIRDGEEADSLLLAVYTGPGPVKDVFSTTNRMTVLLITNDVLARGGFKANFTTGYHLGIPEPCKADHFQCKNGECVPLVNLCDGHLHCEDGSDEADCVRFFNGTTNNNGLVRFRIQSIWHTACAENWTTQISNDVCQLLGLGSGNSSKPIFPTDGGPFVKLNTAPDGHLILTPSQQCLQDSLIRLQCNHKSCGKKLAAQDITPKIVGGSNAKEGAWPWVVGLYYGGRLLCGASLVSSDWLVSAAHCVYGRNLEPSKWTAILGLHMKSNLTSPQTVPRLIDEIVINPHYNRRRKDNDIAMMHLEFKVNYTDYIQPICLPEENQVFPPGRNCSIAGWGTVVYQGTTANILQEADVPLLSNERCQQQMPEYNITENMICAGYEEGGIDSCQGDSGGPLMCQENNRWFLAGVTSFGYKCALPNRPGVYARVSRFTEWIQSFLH", "experiment": "Human enteropeptidase inhibitory activity", "assay_type": "biochemical", "settings": "1 μM test compound; fluorescence intensity at 2 hours after start of reaction; read-out: Inhibition rate at 1 μM", "experimental": "Test Example 1: Human Enteropeptidase Inhibitory Activity\nHuman recombinant enteropeptidase (#REN-260, ITSI-Biosciences LLC) was diluted with an assay buffer (50 mM Tricine, pH 8.0, 0.01 (w/v) %, Tween 20, 10 mM CaCl2)) to prepare a 24 mU/mL enzyme solution. Subsequently, 5FAM-Abu-Gly-Asp-Asp-Asp-Lys-Ile-Val-Gly-Gly-Lys(CPQ2)-Lys-Lys-NH2 (CPC Scientific Inc.) was diluted with the assay buffer to prepare a 2.1 μM substrate solution. A test compound is dissolved in DMSO into a 10 mM solution, and the solution was diluted with the assay buffer to give a compound solution. To a 384-well black plate (#784076, Greiner Bio-One), 5 μL of the compound solution and 5 μL of the substrate solution were added and mixed, and 5 μL of the enzyme solution was then added to the mixture, followed by mixing to start the reaction. The fluorescence intensity was measured with a fluorescence plate reader EnVision (The Perkin-Elmer Corp.) at an excitation wavelength of 485 nm and a fluorescence wavelength of 535 nm. The same reaction as above was performed without the addition of the test compound (test compound non-addition group). Furthermore, the same reaction as above was performed without the addition of the test compound and the enzyme (control group). The inhibition rate was calculated using the fluorescence intensity at 2 hours after the start of the reaction by the following expression:\nInhibition rate (%)=(1−((fluorescence intensity of test compound addition group)−(fluorescence intensity of control group))/((fluorescence intensity of test compound non-addition group)−(fluorescence intensity of control group)))×100"}, "High fat diet-fed mice": {"tested_on": "High fat diet-fed mice", "experiment": "Fecal protein concentration-increasing test using high fat diet-fed mouse", "assay_type": "in vivo", "settings": "Mus musculus, po, 24 h, 30 mg/kg oral, feces of first day of administration, vehicle group = 100, read-out: Fecal protein concentration-increasing rate", "from_the_text": "Test Example 2: Fecal Protein Concentration-Increasing Test Using High Fat Diet-Fed Mouse\nHigh fat diet-fed mice (D12451 diet, male, 10- to 50-week old) were orally administered with a 0.5% methyl cellulose suspension containing a test compound (compound administration group, five mice per group) or a 0.5% methyl cellulose suspension (compound non-administration group (vehicle group), five mice per group), and whole feces were collected on the first day of administration. Dried feces were dissolved in 0.5 N NaOH, followed by centrifugation at 12,000 rpm. The protein concentration in the supernatant was then quantitatively measured (Lowry method), and the amount of protein contained in 1 g of feces was calculated as the fecal protein concentration (mg/g feces). The fecal protein concentration-increasing rate was calculated by the following expression.\nFecal protein concentration-increasing rate (%)=Fecal protein concentration of compound administration group/Fecal protein concentration of vehicle group×100"}, "[2]": {"tested_on": "Diet-induced obesity (DIO) mice", "experiment": "Anti-obesity effect test using DIO mouse", "assay_type": "in vivo", "settings": "DIO mice 26-week old", "experimental": "Test Example 3: Anti-Obesity Effect Test Using DIO Mouse\nDiet-induced obesity (DIO) mice (D12451 diet, male, 26-week old) were orally administered with a 0.5% methyl cellulose suspension containing a test compound (30 mg/kg) (compound administration group, five mice per group) or a 0.5% methyl cellulose suspension (compound non-administration group (vehicle), five mice per group) once a day for seven days, and whole feces were collected on the eighth day of administration. Dried feces were dissolved in 0.5 N NaOH, followed by centrifugation at 12,000 rpm. The protein concentration in the supernatant was then quantitatively measured (Lowry method), and the amount of protein contained in 1 g of feces was calculated as the fecal protein concentration (mg/g feces). The fecal protein concentration-increasing rate was calculated by the following expression.\nFecal protein concentration-increasing rate (%)=Fecal protein concentration of compound administration group/Fecal protein concentration of vehicle group X 100\nThe fecal protein concentration-increasing rate and the averages of the body weights at the start of administration and after administration for seven days are shown in Table 6.\nAlso, DIO mice (D12451 diet, male, 59-week old) were orally administered with a 0.5% methyl cellulose suspension containing a test compound (20 mg/kg) (compound administration group, five mice per group) or a 0.5% methyl cellulose suspension (compound non-administration group (vehicle), five mice per group) once a day for seven days, and whole feces were collected on the eighth day of administration. The fecal protein concentration (mg/g feces) was calculated by the method described above. The fecal protein concentration-increasing rate and the averages of the body weights at the start of administration and after administration for seven days are shown in Table 7."}}, "note": "Structures can show the parent of a compound that is named as a salt."}
{"compound": "N=C(N)Nc1ccc(C(=O)Oc2ccc(CCC(=O)N[C@@H](CC(=O)O)C(=O)O)c(OCCOCCOCCOc3cc(OC(=O)c4ccc(NC(=N)N)cc4)ccc3CCC(=O)N[C@@H](CC(=O)O)C(=O)O)c2)cc1", "note": "[Example 12, (2S)-2-[3-[2-[2-[2-[2-[2-[3-[[(1S)-1,2-Dicarboxyethyl]amino]-3-oxopropyl]-5-(4-guanidinobenzoyl)oxyphenoxy]ethoxy]ethoxy]ethoxy]-4-(4-guanidinobenzoyl)oxyphenyl]propanoylamino]butanedioic acid dihydrochloride]", "values": [{"measurement": "inhibition at 1 µM", "setting": "[1]", "value": 100, "unit": "%"}, {"measurement": "response vs control in vivo at 30 mg/kg", "setting": "High fat diet-fed mice", "value": 197, "unit": "%"}, {"measurement": "Body weight (g) At start of administration", "setting": "[2]; 30 mg/kg group, average at start of administration", "value": 45.4, "unit": "g"}, {"measurement": "Body weight (g) After 7-day administration", "setting": "[2]; 30 mg/kg oral once a day for seven days, average", "value": 44.7, "unit": "g"}, {"measurement": "Fecal protein concentration-increasing rate (%)", "setting": "[2]; 30 mg/kg oral once a day for seven days, feces of eighth day, vehicle = 100", "value": 280, "unit": "%"}]}
